# Source: patent US20260115190A1, “DISPERSIONS OF ETRUMADENANT” (Arcus Biosciences, Inc., priority 2022, published 2026)
# Like-named read-outs stand apart in the source and are kept apart here.
# How the values were obtained:
# [1] = Non-sink dissolution (0.1N HCl to FaSSIF gastric transfer); assay type: physicochemical
# Experimental: In vitro drug dissolution performance for each dispersion was evaluated under non-sink conditions in a two-stage process that simulates pH and bile salt concentrations for both gastric and intestinal exposure. In vitro dissolution testing under non-sink conditions allows for a direct evaluation of each dispersion's ability to generate and maintain supersaturation above crystalline etrumadenant's solubility; was used as a predictive surrogate for ensuring product quality and in vivo performance; and is an effective test to discriminate between formulations at a given stability condition.
# To begin dissolution (t=0), a sample of SDI powder was briefly suspended in 4 mL of FaSSIF (2 mg/mL SIF in 100 mM PBS) and then transferred into 50 mL SGF (0.1 N HCl (aq)) pre-heated to 37° C. in a USP Type 2 mini-vessel (100 mL total vessel volume) with stirring (paddles) at 100 rpm. At 30 minutes, a gastric transfer step was performed wherein the volume in each dissolution vessel was approximately doubled using 2×FaSSIF (4.48 mg/mL SIF powder (BioRelevant)), resulting in a final pH of 6.8 in a total volume of 100 mL. Samples taken before and after this transfer at indicated times were evaluated for drug concentration by HPLC. The drug concentrations measured in this test are a composite of SDI free drug, drug in micelles, and drug suspended in solution. A summary of the dissolution and HPLC parameters are shown in Table 6 and Table 7, respectively.
# [2] = Drug-drug interaction study with itraconazole; assay type: in vivo, humans; conditions: for CL/F / Kel / Vd/F / half-life: arithmetic mean ± SD; for AUC % ex / AUC from 0 to 24 h (AUC0-24) / AUC(0-t) / AUC(0-inf) / Cmax: geometric mean; for AUC from 0 to 24 h (AUC0-24) / AUC(0-t) / Vd/F / half-life / AUC(0-inf) / Cmax / Tmax: both sexes, human, plasma, oral; for Vd/F: read-out: Vz/F; for half-life: read-out: t½ (converted); for Tmax: median
# Experimental: An open-label, fixed-sequence, 2-period drug-drug interaction (DDI) study was designed to evaluate the effect of multiple doses of a strong inhibitor of CYP3A4 and P-gp on the single-dose PK of etrumadenant in humans. Etrumadenant was supplied as 25 mg capsules. Itraconazole was used as the representative strong inhibitor of CYP3A4 and P-gp. It was supplied as 10 mg/mL oral solution, Sporanox® by Janssen Pharmaceuticals (or generic equivalent). Twenty (20) healthy, adult male and female (of non-childbearing potential) participants were enrolled. Screening of participants occurred within 28 days prior to the first dosing.
# On Day 1 of Period 1, a single 150 mg dose of etrumadenant was orally administered under fasting conditions (i.e., at least 10 hours of fasting prior to dosing and at least 4 hours postdose). PK sampling for etrumadenant and its metabolites was taken predose and up to 120 hours postdose. There was a washout of 5 days between the etrumadenant dose in Period 1 and the first itraconazole dose in Period 2.
# In Period 2, 200 mg itraconazole was orally administered twice a day (BID) on Day 1 and once a day (QD) for 9 consecutive days (on Days 2 through 10) with a single 150 mg dose of etrumadenant orally administered 1 hour after itraconazole dosing on Day 6. Itraconazole was administered under fasting conditions. On Day 6, participants fasted for at least 10 hours prior to and at least 4 hours post etrumadenant dosing. PK sampling for etrumadenant and its metabolites was taken predose and up to 120 hours after etrumadenant dosing. PK sampling for itraconazole and 1-hydroxy-itraconazole was collected on Days 5, 6, 7, 9, and 11.
# Itraconazole was administered twice on the first day of Period 2 as a loading dose to accelerate CYP3A inhibition and the inhibition was then maintained by administering itraconazole 200 mg QD for 9 consecutive days. A 200 mg BID dose level is expected to provide similar inhibition to a 400 mg QD dose. Although itraconazole reaches steady state within approximately 15 days, it has been established that QD administration of 200 mg itraconazole for 3 to 5 days allows maximum CYP3A inhibition sufficient to detect a DDI. […] As such, administration of itraconazole for at least 4 days is considered sufficient in DDI studies as a CYP3A4 and P-gp inhibitor. To maintain the level of inhibition, itraconazole was administered throughout PK sampling of etrumadenant (i.e., through Day 10 of Period 2). In addition, the itraconazole oral solution was administered under fasting conditions to maximize bioavailability.
# Participants were housed on Day −1 of Period 1, at the time indicated by the clinical research unit (CRU), until after the 120-hour blood draw and completion of study procedures in Period 2. Safety was monitored throughout the study by repeated clinical and laboratory evaluations. In this study, there were no discontinued participants. All participants who received at least one dose of study drug (including participants who terminated the study early) were asked to return to the CRU approximately 14 days after the last dose for follow-up procedures, and to determine if any adverse event (AE) had occurred since the last study visit. All adverse events reported in the study were mild and resolved without treatment.
# A2AR = A2AR (Homo sapiens, UniProt P29274); conditions: antagonist; has been reported; cited from earlier work
# A2AR, sequence (P29274 whole entry): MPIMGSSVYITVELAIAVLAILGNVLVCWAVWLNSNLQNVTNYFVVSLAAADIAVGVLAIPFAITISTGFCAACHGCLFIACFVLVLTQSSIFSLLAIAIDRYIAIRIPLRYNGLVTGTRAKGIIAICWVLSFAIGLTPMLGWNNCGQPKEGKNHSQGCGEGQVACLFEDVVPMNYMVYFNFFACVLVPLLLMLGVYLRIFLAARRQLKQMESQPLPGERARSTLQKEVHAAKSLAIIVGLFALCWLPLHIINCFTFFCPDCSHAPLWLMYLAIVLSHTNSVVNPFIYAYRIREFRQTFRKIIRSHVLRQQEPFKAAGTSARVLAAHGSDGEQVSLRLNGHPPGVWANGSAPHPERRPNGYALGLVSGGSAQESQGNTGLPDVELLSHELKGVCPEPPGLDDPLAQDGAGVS
# [3] = Etrumadenant 150 mg + Itraconazole
# [4] = multiple doses of itraconazole compared to etrumadenant given alone
smiles,measurement,setting,value
"Cc1c(C#N)cccc1-c1cc(-c2cn(Cc3cccc(C(C)(C)O)n3)nn2)nc(N)n1 [Etrumadenant, 3-[2-amino-6-(1-{[6-(2-hydroxypropan-2-yl)pyridine-2-yl]methyl}-1H-1,2,3-triazol-4-yl)pyrimidin-4-yl]-2-methylbenzonitrile]",AUC35-210 FaSSIF,"[1]; Example 4, after transfer to FaSSIF from 35 to 210 minutes",8000 min*μgA/mL
same,C210,"[1]; Example 4, drug concentration at 210 minutes (180 minutes after transfer to FaSSIF)",37.9 μgA/mL
same,Cmax FaSSIF,"[1]; Example 4, maximum drug concentration after transfer to FaSSIF",155.0 μgA/mL
same,AUC35-210 FaSSIF,"[1]; Example 5, t = 0",3800 min*μgA/mL
same,C210,"[1]; Example 5, t = 0",15.5 μgA/mL
same,Total Drug CmaxFaSSIF,"[1]; Example 5, t = 0",129.9 μgA/mL
same,C210,"[1]; Example 5, t = 0, listed as AB928 starting drug substance",15.6 μgA/mL
same,CL/F,[2]; [3],2.52 ± 0.842 L/h
same,Kel,[2]; [3],0.0255 ± 0.00605 h⁻¹
same,AUC % ex,[2]; [3],4.39%
same,CL/F,"[2]; Etrumadenant Alone, 150 mg",4.00 ± 1.12 L/h
same,Kel,"[2]; Etrumadenant Alone, 150 mg",0.0249 ± 0.00663 h⁻¹
same,AUC % ex,"[2]; Etrumadenant Alone, 150 mg",3.90%
same,AUC from 0 to 24 h (AUC0-24),"[2]; 150 mg, Etrumadenant Alone, 150 mg (6 × 25 mg capsules), fasting",21600 ng·h/mL
same,AUC(0-t),"[2]; 150 mg, Etrumadenant Alone",36500 ng·h/mL
same,AUC from 0 to 24 h (AUC0-24),[2]; Etrumadenant 150 mg + Itraconazole 200 mg multiple doses,30700 ng·h/mL
same,Vd/F,[2]; [3],100 ± 28.3 L
same,half-life,[2]; [3],1720 ± 421 min
same,AUC(0-inf),[2]; [3],62600 ng·h/mL
same,AUC(0-t),[2]; [3],59400 ng·h/mL
same,Cmax,[2]; [3],3530 ng/mL
same,Tmax,[2]; [3],1.52 h
same,Vd/F,"[2]; Etrumadenant Alone, 150 mg",172 ± 64.8 L
same,half-life,"[2]; Etrumadenant Alone, 150 mg",1790 ± 533 min
same,AUC(0-inf),"[2]; Etrumadenant Alone, 150 mg",38600 ng·h/mL
same,Cmax,"[2]; Etrumadenant Alone, 150 mg",3000 ng/mL
same,Tmax,"[2]; Etrumadenant Alone, 150 mg",1.38 h
same,increase in etrumadenant AUCinf,[2]; [4],~62%
same,increase in etrumadenant AUClast,[2]; [4],approximately 63%
same,increase in etrumadenant Cmax,[2]; [4],~18%
same,potency on A2AR,A2AR,less than 10 nM
